Measured values as given in patent US8293909B2, “Compounds for the treatment of hepatitis C” (Bristol-Myers Squibb Company, priority 2008, dated 2012).

Tests used:
HCV replicon cells = assay: HCV replicon assay (FRET or luciferase readout); assay type: cell-based
Excerpt: FRET Assay Preparation. To perform the HCV FRET screening assay, 96-well cell culture plates were used. The FRET peptide (Anaspec, Inc.) (Taliani et al., Anal. Biochem. 1996, 240, 60-67) contains a fluorescence donor, EDANS, near one end of the peptide and an acceptor, DABCYL, near the other end. The fluorescence of the peptide is quenched by […] resonance energy transfer (RET) between the donor and the acceptor, but as the NS3 protease cleaves the peptide the products are released from RET quenching and the fluorescence of the donor becomes apparent. The assay reagent was made as follows: 5× cell Luciferase cell culture lysis reagent from Promega (#E153A) diluted to 1× with dH2O, NaCl added to 150 mM final, the FRET peptide diluted to 20 μM final from a 2 mM stock.
To prepare plates, HCV replicon cells, with or without a Renilla luciferase reporter gene, were trypsinized and placed into each well of a 96-well plate with titrated test compounds added in columns 3 through 12; columns 1 and 2 contained a control compound (HCV protease inhibitor), and the bottom row contained cells without compound. The plates were then placed in a CO2 incubator at 37° C.
Assays. Subsequent to addition of the test compounds described above (FRET Assay Preparation), at various times the plate was removed and Alamar blue solution (Trek Diagnostics, #00-100) was added per well as a measure of cellular toxicity. After reading in a Cytoflour 4000 instrument (PE Biosystems), plates were rinsed with PBS and then used for FRET assay by the addition of 30 ul of the FRET peptide assay reagent described above (FRET Assay Preparation) per well. The plate was then placed into the Cytoflour 4000 instrument which had been set to 340 excite/490 emission, automatic mode for 20 cycles and the plate read in a kinetic mode. Typically, the signal to noise using an endpoint analysis after the reads was at least three-fold. Alternatively, after Alamar blue reading, plates were rinsed with PBS, 50 ul of DMEM (high glucose) without phenol red was added and plates were then used for luciferase assay using the Promega Dual-Glo Luciferase Assay System.
Compound analysis was determined by quantification of the relative HCV replicon inhibition and the relative cytotoxicity values. To calculate cytoxicity values, the average Alamar Blue fluorescence signals from the control wells were set as 100% non-toxic. The individual signals in each of the compound test wells were then divided by the average control signal and multiplied by 100% to determine […]. To calculate the HCV replicon inhibition values, an average background value was obtained from the two wells containing the highest amount of HCV protease inhibitor at the end of the assay period. These numbers were similar to those obtained from naïve Huh-7 cells.
The background numbers were then subtracted from the average signal obtained from the control wells and this number was used as 100% activity. The individual signals in each of the compound test wells were then divided by the averaged control values after background subtraction and multiplied by 100% to determine percent activity. EC50 values for a protease inhibitor titration were calculated as the concentration which caused a 50% reduction in FRET or luciferase activity. The two numbers generated for the compound plate, percent cytoxicity and percent activity were used to determine compounds of interest for further analysis.

[1] = target: T1, HCV NS5B RdRp genotype 1b (Hepatitis C virus genotype 1b, UniProt Q9WMX2); assay: HCV NS5B RdRp enzyme assay (standard / modified); assay type: biochemical; conditions: HCV NS5B genotype 1b
T1 construct: The protein was expressed with an 18 amino acid C-terminal truncation to enhance the solubility; made in house; host or cells: E. coli BL21(DE3), pET21a vector
Description: HCV NS5B RdRp cloning, expression, and purification. The cDNA encoding the NS5B protein of HCV, genotype 1b, was cloned into the pET21a expression vector. The protein was expressed with an 18 amino acid C-terminal truncation to enhance the solubility. The E. coli competent cell line BL21(DE3) was used for expression of the protein. Cultures were grown at 37° C. for ˜4 hours until the cultures reached an optical density of 2.0 at 600 nm. The cultures were cooled to 20° C. and induced with 1 mM IPTG. Fresh ampicillin was added to a final concentration of 50 μg/ml and the cells were grown overnight at 20° C.
Cell pellets (3 L) were lysed for purification to yield 15-24 mgs of purified NS5B. The lysis buffer consisted of 20 mM Tris-HCl, pH 7.4, 500 mM NaCl, 0.5% triton X-100, 1 mM DTT, 1 mM EDTA, 20% glycerol, 0.5 mg/ml lysozyme, 10 mM MgCl2, 15 ug/ml deoxyribonuclease I, and Complete™ protease inhibitor tablets (Roche). After addition of the lysis buffer, frozen cell pellets were resuspended using a tissue homogenizer. To reduce the viscosity of the sample, aliquots of the lysate were sonicated on ice using a microtip attached to a Branson sonicator. The sonicated lysate was centrifuged at 100,000×g for 1 hr at 4° C. and filtered through a 0.2 μm filter unit (Corning).
The protein was purified using three sequential chromatography steps: Heparin sepharose CL-6B, polyU sepharose 4B, and Hitrap SP sepharose (Pharmacia). The chromatography buffers were identical to the lysis buffer but contained no lysozyme, deoxyribonuclease I, MgCl2 or protease inhibitor and the NaCl concentration of the buffer was adjusted according to the requirements for charging the protein onto the column. Each column was eluted with a NaCl gradient which varied in length from 5-50 column volumes depending on the column type. After the final chromatography step, the resulting purity of the enzyme is >90% based on SDS-PAGE analysis. The enzyme was aliquoted and stored at −80° C.
Standard HCV NS5B RdRp enzyme assay. HCV RdRp genotype 1b assays were run in a final volume of 60 μl in 96 well plates (Costar 3912). The assay buffer is composed of 20 mM Hepes, pH 7.5, 2.5 mM KCl, 2.5 mM MgCl2, 1 mM DTT, 1.6 U RNAse inhibitor (Promega N2515), 0.1 mg/ml BSA (Promega R3961), and 2% glycerol. All compounds were serially diluted (3-fold) in DMSO and diluted further in water such that the final concentration of DMSO in the assay was 2%. HCV RdRp genotype 1b enzyme was used at a final concentration of 28 nM. A polyA template was used at 6 nM, and a biotinylated oligo-dT12 primer was used at 180 nM final concentration. Template was obtained commercially (Amersham 27-4110). Biotinylated primer was prepared by Sigma Genosys. 3H-UTP was used at 0.6 μCi (0.29 μM total UTP). Reactions were initiated by the addition of enzyme, incubated at 30° C. for 60 min, and stopped by adding 25 μl of 50 mM EDTA containing SPA beads (4 μg/μl, Amersham RPNQ 0007). Plates were read on a Packard Top Count NXT after >1 hr incubation at room temperature.
Modified HCV NS5B RdRp enzyme assay. A modified enzyme assay was performed essentially as described for the standard enzyme assay except for the following: The biotinylated oligo dT12 primer was precaptured on streptavidin-coated SPA beads by mixing primer and beads in assay buffer and incubating at room temperature for one hour. Unbound primer was removed after centrifugation. The primer-bound beads were resuspended in 20 mM Hepes buffer, pH 7.5 and used in the assay at final concentrations of 20 nM primer and 0.67 μg/μl beads. Order of addition in the assay: enzyme (14 nM) was added to diluted compound followed by the addition of a mixture of template (0.2 nM), 3H-UTP (0.6 μCi, 0.29 μM), and primer-bound beads, to initiate the reaction; concentrations given are final. Reactions were allowed to proceed for 4 hours at 30° C.
IC50 values for compounds were determined using seven different [I]. […]

T1 sequence (Q9WMX2 2420-2992): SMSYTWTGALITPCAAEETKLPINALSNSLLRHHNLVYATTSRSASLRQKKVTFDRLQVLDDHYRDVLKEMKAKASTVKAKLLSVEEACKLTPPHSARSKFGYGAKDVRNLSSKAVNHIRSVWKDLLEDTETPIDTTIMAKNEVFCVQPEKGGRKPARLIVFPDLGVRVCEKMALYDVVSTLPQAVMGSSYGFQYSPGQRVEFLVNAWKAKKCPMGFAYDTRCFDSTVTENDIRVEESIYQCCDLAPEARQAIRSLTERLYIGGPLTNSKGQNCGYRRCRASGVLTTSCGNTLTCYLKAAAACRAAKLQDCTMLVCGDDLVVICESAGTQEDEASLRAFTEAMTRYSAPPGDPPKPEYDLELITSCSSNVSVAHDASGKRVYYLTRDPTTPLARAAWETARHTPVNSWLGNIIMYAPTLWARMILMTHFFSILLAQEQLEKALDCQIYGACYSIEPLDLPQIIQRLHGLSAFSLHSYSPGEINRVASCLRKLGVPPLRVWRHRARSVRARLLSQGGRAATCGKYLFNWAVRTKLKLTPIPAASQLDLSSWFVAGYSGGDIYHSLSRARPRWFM

| SMILES | EC50 (HCV replicon cells; Hepatitis C virus, Table 1) [nM] | IC50 ([1]; Table 1) [nM] | other results |
| --- | --- | --- | --- |
| CNC(=O)c1c(-c2ccc(F)cc2)nc2ccc(-c3cc(C(=O)NC(C)(C)c4ccccc4)ccc3C)cn12 | 2 to 250 | 2 to 250 | – |
| CNC(=O)c1c(-c2ccc(F)cc2)sc2ccc(-c3cccc(C(=O)NC(C)(C)C)c3)cc12 [drawing 85] | 1000 to 10000 | > 4170 | – |
| CNC(=O)c1c(-c2ccc(F)cc2)nn2ccc(-c3cc(C(=O)NC4(c5ccccc5F)CC4)c(OC)cc3C)c(F)c12 | 250 to 1000 | 2 to 250 | – |
| CNC(=O)c1c(-c2ccc(F)cc2)nc2ccc(C3CC3C(=O)NC3(c4ccccn4)CC3)cn12 (stereo not shown) [drawing 159] | > 10000 | > 10000 | – |
| CNC(=O)c1c(-c2ccc(F)cc2)oc2cnc(-c3cccc(C(=O)NC4(c5ccccn5)CC4)c3)cc12 | 1000 to 10000 | 2 to 250 | – |
| CNC(=O)c1cccc(-c2ccc3c(C(=O)NC)c(-c4ccccc4)nn3c2)c1 | > 10000 | > 10000 | – |
| CNC(=O)c1c(-c2ccc(F)cc2)nn2ccc(-c3cc(C(=O)NC4(C5CCCCC5)CC4)c(OC)cc3C)c(F)c12 | 2 to 250 | 2 to 250 | – |
| CNC(=O)c1c(-c2ccc(F)cc2)nc2ccc(-c3cccc(C(=O)NC(C)(C)C)c3)cn12 [drawing 180] | – | – | EC50 (HCV replicon cells; Hepatitis C virus, Table 2): 400 nM; IC50 ([1]; Table 2): 640 nM |
| CNC(=O)c1c(-c2ccc(F)cc2)nc2ccc(-c3cc(C(=O)NC4(c5ccccn5)CC4)c(OC)cc3Cl)cn12 [drawing 124] | 250 to 1000 | – | – |
| CNC(=O)c1c(-c2ccc(F)cc2)nn2ccc(-c3cc(C(=O)NC4(c5ccccn5)CC4)cc(F)c3C)c(F)c12 | 2 to 250 | – | – |
| CNC(=O)c1c(-c2ccc(F)cc2)nn2cc(NC(=O)C(F)(F)F)ccc12 | > 10000 | > 10000 | – |
| CNC(=O)c1c(-c2ccc(F)cc2)oc2ncc(-c3cc(C(=O)NC4(c5ncccn5)CC4)ccc3C)cc12 | 2 to 250 | 2 to 250 | – |
| CNC(=O)c1c(-c2ccc(F)cc2)nn2ccc(-c3cc(C(=O)NC4(c5ccccc5)CC4)cc(F)c3C)c(F)c12 [drawing 175] | – | – | EC50 (HCV replicon cells; Hepatitis C virus, Table 2): 4.32 nM; IC50 ([1]; Table 2): 30 nM |
| CNC(=O)c1c(-c2ccc(F)cc2)nn2cc(NC(=O)OC(C)(C)C)ccc12 | > 10000 | > 10000 | – |
| CNC(=O)c1c(-c2ccc(F)cc2)nn2cc(N(CCO)S(C)(=O)=O)c(-c3cc(C(=O)NC4(c5ccccc5)CC4)ccc3C)cc12 | – | 2 to 250 | – |
| CNC(=O)c1c(-c2ccc(F)cc2)nc2ccc(C3CC3C(=O)NC3(c4ccccn4)CC3)cn12 (stereo not shown) [drawing 160] | – | – | EC50 (HCV replicon cells; Table 1): > 10000 nM |

| SMILES | EC50 (HCV replicon cells; Hepatitis C virus, Table 1) [nM] | IC50 ([1]; Table 1) [nM] | other results |
| --- | --- | --- | --- |
| CNC(=O)c1c(-c2ccc(F)cc2)nn2ccc(-c3cc(C(=O)NC4(c5ccccc5)CC4)c(OC)nc3C)c(F)c12 | 2 to 250 | – | – |
| CNC(=O)c1c(-c2ccc(F)cc2)nn2ccc(-c3cc(C(=O)NC4(c5cc(F)ccn5)CC4)c(OC)nc3C)c(F)c12 | 2 to 250 | – | – |
| CNC(=O)c1c(-c2ccc(F)cc2)nn2ccc(-c3cc(C(=O)NC4(c5ccccn5)CC4)c(OCC4CCOCC4)nc3C)c(F)c12 | 2 to 250 | – | – |
| CNC(=O)c1c(-c2ccc(F)cc2)nn2ccc(-c3cc(C(=O)NC4(c5nnc(-c6ccccc6)[nH]5)CC4)c(OC)cc3C)c(F)c12 | 2 to 250 | – | – |
| CNC(=O)c1c(-c2ccc(F)cc2)nn2ccc(-c3cc(C(=O)NC4(c5ccccc5)CC4)cc(F)c3C)c(F)c12 [drawing 138] | 2 to 250 | – | – |
| CNC(=O)c1c(-c2ccc(F)cc2)nn2ccc(-c3cc(C(=O)NC4(c5cnccn5)CC4)c(OC)cc3C)c(F)c12 | 2 to 250 | – | – |
| CNC(=O)c1c(-c2ccc(F)cc2)nn2ccc(-c3cc(C(=O)NC4(c5ccccn5)CC4)c(OC(F)F)nc3C)c(F)c12 | 2 to 250 | – | – |
| CNC(=O)c1c(-c2ccc(F)cc2)nn2ccc(-c3cc(C(=O)NC4(c5ccccn5)CC4)c(OC)nc3C)c(F)c12 | 2 to 250 | – | – |
| CNC(=O)c1c(-c2ccc(F)cc2)nc2ccc(-c3ccc(-c4ccccc4Cl)c(C(=O)NCC(C)C)c3)cn12 [drawing 121] | 2 to 250 | – | – |
| CNC(=O)c1c(-c2ccc(F)cc2)nn2ccc(-c3cc(F)cc(C(=O)NC4(c5ccccc5)CC4)c3)c(F)c12 | > 10000 | – | – |
| CNC(=O)c1c(-c2ccc(F)cc2)nn2ccc(-c3cc(C(=O)NC4(c5nc(C)no5)CC4)cc(F)c3C)c(F)c12 | 2 to 250 | – | – |
| CNC(=O)c1c(-c2ccc(F)cc2)nc2ccc(-c3ccc(-c4cccnc4)c(C(=O)NCC(C)C)c3)cn12 | 250 to 1000 | – | – |
| CNC(=O)c1c(-c2ccc(F)cc2)nn2ccc(-c3cc(C(=O)NC4(c5ccccc5)CC4)c(OC(F)F)nc3C)c(F)c12 | 2 to 250 | – | – |
| CNC(=O)c1c(-c2ccc(F)cc2)nn2ccc(-c3cc(F)cc(C(=O)NC4(c5ccccn5)CC4)c3)c(F)c12 | 1000 to 10000 | – | – |
| CNC(=O)c1c(-c2ccc(F)cc2)nn2ccc(-c3cc(C(=O)NC4(c5ncccn5)CC4)c(OCC4CCOCC4)nc3C)c(F)c12 | 2 to 250 | – | – |
